Assay results reported in the supplement of paper PMC5579334.

Tests used:
HS-PSS [1] = assay: % inhibition of CellTiter-Glo viability at highest tested concentration (72 h), relative to DMSO and benzethonium chloride controls; higher = more inhibition
In short: (§1)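 Viability of MPNST cell lines and primary human Schwann cells was read as CellTiter-Glo ATP luminescence after 72 h at 37 °C, 5% CO2, in 384-well plates seeded with 750–1000 cells per well. Each compound had been preprinted at five concentrations in 10-fold steps. Signals were scaled between vehicle and positive-control wells, duplicates averaged where present, and fitted with four-parameter logistic curves. Drug sensitivity score and relative IC50 (censored at the top concentration) come from those fits, and percent inhibition is taken at the top concentration.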

HS-Sch-2 [2] = assay: as above
In short: as §1

YST-1 [3] = assay: as above
In short: as §1

HS-PSS [4] = assay: drug sensitivity score (DSS, CellTox-Green cytotoxicity, 72 h) (DSS (dimensionless)); higher = more cytotoxic; extreme values may be limits of the assay
In short: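 MPNST cell lines and primary human Schwann cells were grown for 72 h at 37 °C in 384-well plates containing five 10-fold compound dilutions. CellTox-Green, added before seeding at a final 1:1000 dilution, gave fluorescence from DNA released by disrupted cells, and signals were scaled to vehicle and positive-control wells. Curves were fitted with a four-parameter logistic model. Drug sensitivity score and relative IC50 come from these fits, with IC50 censored at the top concentration.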

HS-PSS [5] = assay: drug sensitivity score (DSS, CellTiter-Glo viability, 72 h) (DSS (dimensionless)); higher = more sensitive; extreme values may be limits of the assay
In short: as §1

HS-Sch-2 [6] = assay: as above
In short: as §1

YST-1 [7] = assay: as above
In short: as §1

O=C(Nc1cccc(Cl)c1)Nc1ncc(CCNc2ncnc3ccsc23)s1 [SNS-314] (max concentration tested 1000 nM)
% inhibition (HS-PSS [1]): 23.8% | % inhibition (HS-Sch-2 [2]): 53.3% | % inhibition (YST-1 [3]): 36.5% | drug sensitivity score (HS-PSS [4]): 0 | drug sensitivity score (HS-PSS [5]): 2.01 | drug sensitivity score (HS-Sch-2 [6]): 4.4 | drug sensitivity score (YST-1 [7]): 8.57

Cc1c(CN2CCN(C(=O)[C@H](C)O)CC2)sc2c(N3CCOCC3)nc(-c3cnc(N)nc3)nc12 [Apitolisib] (max concentration tested 10000 nM)
% inhibition (HS-PSS [1]): 64.5% | % inhibition (HS-Sch-2 [2]): 71.5% | % inhibition (YST-1 [3]): 86.9% | drug sensitivity score (HS-PSS [4]): 0 | drug sensitivity score (HS-PSS [5]): 8.39 | drug sensitivity score (HS-Sch-2 [6]): 9.07 | drug sensitivity score (YST-1 [7]): 18.3

NC(=O)N1CCC(CC(=O)N2CCC([C@H]3c4ncc(Br)cc4CCc4cc(Cl)cc(Br)c43)CC2)CC1 [Lonafarnib] (max concentration tested 10000 nM)
% inhibition (HS-PSS [1]): 58% | % inhibition (HS-Sch-2 [2]): 55.5% | % inhibition (YST-1 [3]): 64.4% | drug sensitivity score (HS-PSS [4]): 0 | drug sensitivity score (HS-PSS [5]): 4.36 | drug sensitivity score (HS-Sch-2 [6]): 4.95 | drug sensitivity score (YST-1 [7]): 5.95

NC(=O)Nc1sc(-c2ccc(F)cc2)cc1C(N)=O [TPCA-1] (max concentration tested 25000 nM)
% inhibition (HS-PSS [1]): 41% | % inhibition (HS-Sch-2 [2]): 17.7% | % inhibition (YST-1 [3]): 46.1% | drug sensitivity score (HS-PSS [4]): 0 | drug sensitivity score (HS-PSS [5]): 3.59 | drug sensitivity score (HS-Sch-2 [6]): 1.36 | drug sensitivity score (YST-1 [7]): 3.91

CS(=O)(=O)c1ccc(-c2cnc(N)c(C(=O)Nc3ccccc3)n2)cc1 [VE-821] (max concentration tested 10000 nM)
% inhibition (HS-PSS [1]): 10.4% | % inhibition (HS-Sch-2 [2]): 5.62% | % inhibition (YST-1 [3]): 7.49% | drug sensitivity score (HS-PSS [4]): 0 | drug sensitivity score (HS-PSS [5]): 0.05 | drug sensitivity score (HS-Sch-2 [6]): 0 | drug sensitivity score (YST-1 [7]): 0

Cc1cccc(-c2[nH]c(CNc3ccccc3F)nc2-c2ccc3ncnn3c2)n1 [TEW-7197] (max concentration tested 2500 nM)
% inhibition (HS-PSS [1]): 23.2% | % inhibition (HS-Sch-2 [2]): 13.1% | % inhibition (YST-1 [3]): -10.6% | drug sensitivity score (HS-PSS [4]): 0 | drug sensitivity score (HS-PSS [5]): 1.89 | drug sensitivity score (HS-Sch-2 [6]): 0.08 | drug sensitivity score (YST-1 [7]): 0

COc1ccc(-c2ccc3ncc4c(c3c2)n(-c2ccc(N3CCNCC3)c(C(F)(F)F)c2)c(=O)n4C)cn1 [NVP-BGT226] (max concentration tested 1000 nM)
% inhibition (HS-PSS [1]): 99.1% | % inhibition (HS-Sch-2 [2]): 98.2% | % inhibition (YST-1 [3]): 99.5% | drug sensitivity score (HS-PSS [4]): 3.94 | drug sensitivity score (HS-PSS [5]): 15.3 | drug sensitivity score (HS-Sch-2 [6]): 21.4 | drug sensitivity score (YST-1 [7]): 19.7

O=c1sn(-c2cccc3ccccc23)c(=O)n1Cc1ccccc1 [Tideglusib] (max concentration tested 3000 nM)
% inhibition (HS-PSS [1]): 6.62% | % inhibition (HS-Sch-2 [2]): 2.01% | % inhibition (YST-1 [3]): 3.93% | drug sensitivity score (HS-PSS [4]): 0 | drug sensitivity score (HS-PSS [5]): 0 | drug sensitivity score (HS-Sch-2 [6]): 0 | drug sensitivity score (YST-1 [7]): 0

O=C(Nc1cccc(Nc2ncc(Br)c(NCCc3cnc[nH]3)n2)c1)N1CCCC1 [BX-912] (max concentration tested 10000 nM)
% inhibition (HS-PSS [1]): 44.8% | % inhibition (HS-Sch-2 [2]): 78.4% | % inhibition (YST-1 [3]): 67% | drug sensitivity score (HS-PSS [4]): 0 | drug sensitivity score (HS-PSS [5]): 3.51 | drug sensitivity score (HS-Sch-2 [6]): 4.94 | drug sensitivity score (YST-1 [7]): 8.47

O=C(c1cccc(Cl)c1F)N1CCN(Cc2cccc(Nc3nccs3)n2)CC1 [MK-8745] (max concentration tested 2500 nM)
% inhibition (HS-PSS [1]): 17.5% | % inhibition (HS-Sch-2 [2]): 48.5% | % inhibition (YST-1 [3]): 36.5% | drug sensitivity score (HS-PSS [4]): 0.89 | drug sensitivity score (HS-PSS [5]): 0.32 | drug sensitivity score (HS-Sch-2 [6]): 3.17 | drug sensitivity score (YST-1 [7]): 4.21

CN(CC(=O)N(Cc1ccc(C2CCCCC2)cc1)c1ccc(C(=O)O)cc1)S(=O)(=O)c1c(F)c(F)c(F)c(F)c1F [SH-4-54] (max concentration tested 25000 nM)
% inhibition (HS-PSS [1]): 98.7% | % inhibition (HS-Sch-2 [2]): 93% | % inhibition (YST-1 [3]): 100% | drug sensitivity score (HS-PSS [4]): 3.21 | drug sensitivity score (HS-PSS [5]): 5.78 | drug sensitivity score (HS-Sch-2 [6]): 7.18 | drug sensitivity score (YST-1 [7]): 10.3

O=c1ncn2nc(Sc3ccc(F)cc3F)ccc2c1-c1c(Cl)cccc1Cl [VX 745] (max concentration tested 10000 nM)
% inhibition (HS-PSS [1]): 21.1% | % inhibition (HS-Sch-2 [2]): 22.6% | % inhibition (YST-1 [3]): 31.1% | drug sensitivity score (HS-PSS [4]): 0 | drug sensitivity score (HS-PSS [5]): 0.47 | drug sensitivity score (HS-Sch-2 [6]): 0.7 | drug sensitivity score (YST-1 [7]): 3.73

CC(C)CC(=O)Nc1n[nH]c2c1CN(C(=O)C1CCN(C)CC1)C2(C)C (max concentration tested 10000 nM)
% inhibition (HS-PSS [1]): 83.7% | % inhibition (HS-Sch-2 [2]): 101% | % inhibition (YST-1 [3]): 99.8% | drug sensitivity score (HS-PSS [4]): 2.57 | drug sensitivity score (HS-PSS [5]): 11.5 | drug sensitivity score (HS-Sch-2 [6]): 10.2 | drug sensitivity score (YST-1 [7]): 11.8

N.N.[Cl][Pt][Cl] [Cisplatin] (max concentration tested 100000 nM)
% inhibition (HS-PSS [1]): 86.4% | % inhibition (HS-Sch-2 [2]): 100% | % inhibition (YST-1 [3]): 95.9% | drug sensitivity score (HS-PSS [4]): 9.13 | drug sensitivity score (HS-PSS [5]): 13.1 | drug sensitivity score (HS-Sch-2 [6]): 23.1 | drug sensitivity score (YST-1 [7]): 13.8

COc1cccc2c1c(O)c(C(=O)N(C)c1ccc(C(F)(F)F)cc1)c(=O)n2C [Tasquinimod] (max concentration tested 10000 nM)
% inhibition (HS-PSS [1]): 11.8% | % inhibition (HS-Sch-2 [2]): 8.66% | % inhibition (YST-1 [3]): 20.7% | drug sensitivity score (HS-PSS [4]): 0 | drug sensitivity score (HS-PSS [5]): 0.69 | drug sensitivity score (HS-Sch-2 [6]): 0 | drug sensitivity score (YST-1 [7]): 3.88

C=CC(=O)N1CCC(Oc2cc3c(Nc4ccc(Cl)c(Cl)c4F)ncnc3cc2OC)CC1 [Poziotinib] (max concentration tested 1000 nM)
% inhibition (HS-PSS [1]): 6.52% | % inhibition (HS-Sch-2 [2]): 3.19% | % inhibition (YST-1 [3]): 12.9% | drug sensitivity score (HS-PSS [4]): 0 | drug sensitivity score (HS-PSS [5]): 0 | drug sensitivity score (HS-Sch-2 [6]): 0 | drug sensitivity score (YST-1 [7]): 0.25

CC1CCC(n2c3cnccc3c3cnc(Nc4ccc5c(n4)CCN(C(=O)CO)C5)nc32)CC1 (stereo unspecified) [AMG-925] (max concentration tested 1000 nM)
% inhibition (HS-PSS [1]): 9.07% | % inhibition (HS-Sch-2 [2]): 12.2% | % inhibition (YST-1 [3]): 6.95% | drug sensitivity score (HS-PSS [4]): 0 | drug sensitivity score (HS-PSS [5]): 0 | drug sensitivity score (HS-Sch-2 [6]): 0.03 | drug sensitivity score (YST-1 [7]): 0.02

CC(=O)c1cnc2ccc(-c3cc(Cl)c(O)c(Cl)c3)nc2c1N[C@H]1CC[C@H](CN(C)C)CC1 [OTSSP167] (max concentration tested 1000 nM)
% inhibition (HS-PSS [1]): 83.1% | % inhibition (HS-Sch-2 [2]): 101% | % inhibition (YST-1 [3]): 100% | drug sensitivity score (HS-PSS [4]): 0.29 | drug sensitivity score (HS-PSS [5]): 4.33 | drug sensitivity score (HS-Sch-2 [6]): 18.5 | drug sensitivity score (YST-1 [7]): 23.8
